In patent US6825232B2, “Use of hydroxyeicosatetraenoic acid compounds to treat ophthalmic inflammatory disorders” (Alcon, Inc., priority 2002, dated 2004):
Marks after values point to notes of the source that are not given here.

Assays:
IL-6 [1] = experiment: IL-6 release from IL-1β-stimulated primary human corneal fibroblast cells (ELISA); format: cell-based; settings: for % Inhibition of IL-6 (pg/μg dsDNA): 30 min pretreatment, 10 ng/ml IL-1β for 3 hours, normalized to dsDNA
Procedure: Primary human corneal fibroblast cells were obtained from one donor and grown to confluence in Ham's F-10 medium. Fibroblasts were transferred to serum-free media and were pretreated for 30 minutes with various concentrations of 15(S)-HETE. The cells were then stimulated with 10 ng/ml IL-1β for 3 hours and aliquots of the supernatants were assayed for IL-6 by ELISA. Data were normalized by the amount of double stranded DNA (dsDNA) extracted from the cells.

IL-8 = settings: 1 μM to 0.1 nM; human bone marrow stromal cells; cited from earlier work
IL-6 [2] = settings: bone marrow stromal cells; cited from earlier work

CCCCC[C@H](O)/C=C/C=C\C/C=C\C/C=C\CCCC(=O)O [15(S)-HETE, 15-Hydroxyeicosatetraenoic acid]
% Inhibition of IL-6 (pg/μg dsDNA) (IL-6 [1]; 15(S)-HETE 0.5 μg): 53.1%
% Inhibition of IL-6 (pg/μg dsDNA) (IL-6 [1]; 15(S)-HETE 1 μg): 67.9* %
% Inhibition of IL-6 (pg/μg dsDNA) (IL-6 [1]; 15(S)-HETE 2 μg): 88.6** %
% Inhibition of IL-6 (pg/μg dsDNA) (IL-6 [1]; 15(S)-HETE 3 μg): 90.4** %
IC50 (IL-6 [1]; primary human corneal fibroblast cells, IL-1β stimulated, read-out: IC50 for IL-6 inhibition): < 500 nM
effect on the spontaneous and serum-induced production of IL-8 (IL-8): no effect
effect on the spontaneous, serum- and cytokine-induced IL-6 synthesis (IL-6 [2]): no effect
